The assay has as its target T1, 5-HT transporter (Rattus norvegicus, UniProt P31652).
T1 construct: from tissue; host or cells: rat brain synaptosomes (P2 fraction) from medulla and pons
The assay is described as follows: 5-HT uptake inhibition in rat brain synaptosomes (medulla and pons), [3H]-5-HT. Format: biochemical. An excerpt: a) Method for Determining Noradrenalin and 5-HT Uptake Inhibition:
Synaptosomes from rat brain regions are freshly isolated for in vitro studies, as described in the publication “The isolation of nerve endings from brain” by E. G. Gray and V. P. Whittaker, J. Anatomy 96, pages 79-88, 1962. The corresponding literature description is hereby introduced as a reference and is deemed to be part of the disclosure.
The tissue (hypothalamus for the determination of noradrenalin uptake inhibition and medulla and pons for the determination of 5-HT uptake inhibition) is homogenised in ice-cooled 0.32 M sucrose (100 mg of tissue/1 mL) in a glass homogeniser with Teflon pestle using five complete up and down strokes at 840 revolutions/minute.
The homogenate is centrifuged at 4° C. for 10 minutes at 1000 g. After subsequent centrifugation at 17000 g for 55 minutes, the synaptosomes (P2 fraction) are obtained, which are resuspended in 0.32 M […] (0.5 mL/100 mg of original weight).
The particular uptake is measured in a 96-well microtitre plate. The volume is 250 μl and the incubation proceeds at room temperature (approx. 20-25° C.) under an O2 atmosphere.
The incubation time is 7.5 minutes for [^3H]-NA and 5 minutes for [^3H]-5-HT. The 96 samples are then filtered through a Unifilter GF/B® microtitre plate (Packard) and washed with 200 mL of incubated buffer using a “Brabdel MPXRI-96T Cell-Harvester”. The Unifilter GF/B plate is dried for 1 hour at 55° C. The plate is then sealed with a Back Seal® (Packard) and 35 μl of scintillation fluid are added per well (Ultima Gold®, Packard). After sealing with a top Seal® (Packard) and establishing an equilibrium (around 5 hours), radioactivity is determined in a “Trilux 1450 Microbeta” (Wallac).
The quantity of protein used in the above determination corresponds to the values known from the literature, as for example described in “Protein measurement with the folin phenol reagent”, Lowry et al., J. Biol. Chem., 193, 265-275, 1951.
A detailed description of the method may additionally be found in the literature, for example in M. Ch. Frink, H.-H. Hennies, W. Engelberger, M. Haurand and B. Wilffert (1996) Arzneim.-Forsch./Drug Res. 46 (III), 11, 1029-1036.

One may read the inhibition as the share of the control response that was lost under treatment.

T1 sequence (P31652 whole entry): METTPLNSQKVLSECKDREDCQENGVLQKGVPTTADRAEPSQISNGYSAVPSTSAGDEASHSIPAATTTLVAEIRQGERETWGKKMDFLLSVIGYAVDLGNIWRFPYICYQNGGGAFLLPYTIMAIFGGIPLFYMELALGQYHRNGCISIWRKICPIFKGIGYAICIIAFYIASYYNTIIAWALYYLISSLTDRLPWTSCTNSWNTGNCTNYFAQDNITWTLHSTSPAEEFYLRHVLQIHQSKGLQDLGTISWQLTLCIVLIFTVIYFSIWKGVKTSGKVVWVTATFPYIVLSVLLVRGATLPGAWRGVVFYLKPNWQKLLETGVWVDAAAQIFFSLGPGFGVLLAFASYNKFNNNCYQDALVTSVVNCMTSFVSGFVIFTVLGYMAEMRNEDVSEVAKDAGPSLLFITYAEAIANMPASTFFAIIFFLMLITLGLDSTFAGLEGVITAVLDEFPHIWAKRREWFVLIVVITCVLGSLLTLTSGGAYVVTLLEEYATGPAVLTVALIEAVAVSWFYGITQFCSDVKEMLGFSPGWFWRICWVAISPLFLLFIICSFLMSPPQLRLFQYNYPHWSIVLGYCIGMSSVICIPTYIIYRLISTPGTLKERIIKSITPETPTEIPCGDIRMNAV

Compound `CC(C)(C)OC(=O)NC(Cc1c[nH]c2ccccc12)C(=O)N1CCC2(CC1)CN(Cc1cccc(Br)c1)C(=O)O2` (centres unmarked) [Example 66, [2-[3-(3-bromobenzyl)-2-oxo-1-oxa-3,8-diazaspiro[4.5]dec-8-yl]-1-(1H-indol-3-ylmethyl)-2-oxoethyl]carbamic acid tert-butyl ester] gave an inhibition at 10 µM of 53%. `N#Cc1ccccc1CN1CC2(CCN(C(=O)CC3(CC(=O)O)CCCC3)CC2)OC1=O` [Example 71, (1-{2-[3-(2-cyanobenzyl)-2-oxo-1-oxa-3,8-diazaspiro[4.5]dec-8-yl]-2-oxoethyl}cyclopentyl)acetic acid] came in with an inhibition at 10 µM of 62%. The compound `O=C(O)CC1(CC(=O)N2CCC3(CC2)CN(Cc2ccc(F)c(F)c2)C(=O)O3)CCCC1` [Example 72, (1-{2-[3-(3,4-difluorobenzyl)-2-oxo-1-oxa-3,8-diazaspiro[4.5]dec-8-yl]-2-oxoethyl}cyclopentyl)acetic acid] displayed an inhibition at 10 µM of 45%.

Regarding `CC(CC(=O)O)CC(=O)N1CCC2(CC1)CN(Cc1ccccc1-c1ccccc1)C(=O)O2` (centres unmarked) [Example 73, 5-(3-biphenyl-2-ylmethyl-2-oxo-1-oxa-3,8-diazaspiro[4.5]dec-8-yl)-3-methyl-5-oxopentanoic acid], the inhibition at 10 µM is 57%.

Turning to `COc1ccc([N+](=O)[O-])cc1CN1CC2(CCN(CC(=O)Nc3cc(C)nn3C)CC2)OC1=O` [Example 76, N-(2,5-dimethyl-2H-pyrazol-3-yl)-2-[3-(2-methoxy-5-nitrobenzyl)-2-oxo-1-oxa-3,8-diazaspiro[4.5]dec-8-yl]acetamide], the inhibition at 10 µM was determined as 51%. For the compound `O=C1OC2(CCN(Cc3ccc(OC(F)(F)F)cc3)CC2)CN1Cc1ccc(F)c(F)c1` [Example 81, 3-(3,4-difluorobenzyl)-8-(4-trifluoromethoxybenzyl)-1-oxa-3,8-diazaspiro[4.5]decan-2-one], the inhibition at 10 µM was 75%. Take `N#Cc1ccccc1CN1CC2(CCN(Cc3ccc(Cl)cc3)CC2)OC1=O` [Example 82, 2-[8-(4-chlorobenzyl)-2-oxo-1-oxa-3,8-diazaspiro[4.5]dec-3-ylmethyl]benzonitrile]: testing at 10 µM gave an inhibition of 56%. As to `Cc1ccc2ccccc2c1CN1CCC2(CC1)CN(Cc1ccccc1C(F)(F)F)C(=O)O2` [Example 83, 8-(2-methylnaphthalen-1-ylmethyl)-3-(2-trifluoromethylbenzyl)-1-oxa-3,8-diazaspiro[4.5]decan-2-one], the inhibition at 10 µM turned out to be 41%. The compound `N#Cc1ccccc1CN1CC2(CCN(Cc3csc4ccc(Cl)cc34)CC2)OC1=O` [Example 84, 2-[8-(5-chlorobenzo[b]thiophen-3-ylmethyl)-2-oxo-1-oxa-3,8-diazaspiro[4.5]dec-3-ylmethyl]benzonitrile] came in with an inhibition at 10 µM of 62%. As for `O=C(CN1CCC2(CC1)CN(Cc1ccc(SC(F)(F)F)cc1)C(=O)O2)Nc1csc(C(F)(F)F)c1-c1ccccc1` [Example 85, 2-[2-oxo-3-(4-trifluoromethylsulfanylbenzyl)-1-oxa-3,8-diazaspiro[4.5]dec-8-yl]-N-(4-phenyl-5-trifluoromethylthiophen-3-yl)acetamide], the inhibition at 10 µM came to 90%. `COc1ccc([N+](=O)[O-])cc1CN1CC2(CCN(Cc3cccc([N+](=O)[O-])c3)CC2)OC1=O` [Example 88, 3-(2-methoxy-5-nitrobenzyl)-8-(3-nitrobenzyl)-1-oxa-3,8-diazaspiro[4.5]decan-2-one] gave an inhibition at 10 µM of 70%. Consider `Cc1ccc(CN2CC3(CCN(Cc4ccc5ccccc5c4Br)CC3)OC2=O)cc1` [Example 90, 8-(1-bromonaphthalen-2-ylmethyl)-3-(4-methylbenzyl)-1-oxa-3,8-diazaspiro[4.5]decan-2-one], for which the inhibition at 10 µM is 77%. As for `CC(=O)Nc1ccc(C(=O)N2CCC3(CC2)CN(Cc2cccc(C#N)c2)C(=O)O3)cc1` [Example 91, N-{4-[3-(3-cyanobenzyl)-2-oxo-1-oxa-3,8-diazaspiro[4.5]decane-8-carbonyl]phenyl}acetamide], the figure is 68%. Take `CCSc1ncccc1C(=O)N1CCC2(CC1)CN(Cc1cc(C)cc(C)c1)C(=O)O2` [Example 99, 3-(3,5-dimethylbenzyl)-8-(2-ethylsulfanylpyridine-3-carbonyl)-1-oxa-3,8-diazaspiro[4.5]decan-2-one]: 10 µM produced 73% inhibition. With `Cc1cc(C)cc(CN2CC3(CCN(C(=O)c4c(-c5ccccc5Cl)noc4C)CC3)OC2=O)c1` [Example 101, 8-[3-(2-chlorophenyl)-5-methylisoxazole-4-carbonyl]-3-(3,5-dimethylbenzyl)-1-oxa-3,8-diazaspiro[4.5]decan-2-one], the inhibition at 10 µM was determined as 84%.

In the case of `CCc1ccc(CS(=O)(=O)N2CCC3(CC2)CN(Cc2cccc(Br)c2)C(=O)O3)cc1` [Example 102, 3-(3-bromobenzyl)-8-(4-ethylbenzylsulfonyl)-1-oxa-3,8-diazaspiro[4.5]decan-2-one], the inhibition at 10 µM was found to be 67%. Compound `CCCCOc1ccc(CS(=O)(=O)N2CCC3(CC2)CN(Cc2cc(C)cc(C)c2)C(=O)O3)cc1` [Example 103, 8-(4-butoxybenzylsulfonyl)-3-(3,5-dimethylbenzyl)-1-oxa-3,8-diazaspiro[4.5]decan-2-one] came in with an inhibition at 10 µM of 83%. On to `CC(=O)OC(C(=O)N1CCC2(CC1)CN(Cc1cc(C)cc(C)c1)C(=O)O2)c1ccccc1` (centres unmarked) [Example 105, acetic acid 2-[3-(3,5-dimethylbenzyl)-2-oxo-1-oxa-3,8-diazaspiro[4.5]dec-8-yl]-2-oxo-1-phenylethyl ester], for which the inhibition at 10 µM was determined as 74%. `N#Cc1ccc(CN2CC3(CCN(C(=O)C4CC4c4ccccc4)CC3)OC2=O)cc1` (centres unmarked) [Example 106, 4-[2-oxo-8-(2-phenylcyclopropanecarbonyl)-1-oxa-3,8-diazaspiro[4.5]dec-3-ylmethyl]benzonitrile] gave an inhibition at 10 µM of 63%. The compound `COc1ccc(OC)c(CS(=O)(=O)N2CCC3(CC2)CN(Cc2cc(C)cc(C)c2)C(=O)O3)c1` [Example 107, 8-(2,5-dimethoxybenzylsulfonyl)-3-(3,5-dimethylbenzyl)-1-oxa-3,8-diazaspiro[4.5]decan-2-one] yielded an inhibition at 10 µM of 76%. The compound `Cc1cc(C)cc(CN2CC3(CCN(C(=O)c4ccccc4Cl)CC3)OC2=O)c1` [Example 108, 8-(2-chlorobenzoyl)-3-(3,5-dimethylbenzyl)-1-oxa-3,8-diazaspiro[4.5]decan-2-one] returned an inhibition at 10 µM of 77%. The compound `Cc1ccc(CS(=O)(=O)NC(Cc2ccccc2)C(=O)N2CCC3(CC2)CN(Cc2cccc(C#N)c2)C(=O)O3)cc1` (centres unmarked) [Example 110, N-{1-benzyl-2-[3-(3-cyanobenzyl)-2-oxo-1-oxa-3,8-diazaspiro[4.5]dec-8-yl]-2-oxoethyl}-4-methylbenzylsulfonamide] registered an inhibition at 10 µM of 64%. `CCSc1ncccc1C(=O)N1CCC2(CC1)CN(Cc1cccc(OC)c1)C(=O)O2` [Example 111, 8-(2-ethylsulfanylpyridine-3-carbonyl)-3-(3-methoxybenzyl)-1-oxa-3,8-diazaspiro[4.5]decan-2-one] registered an inhibition at 10 µM of 71%. In the case of `COc1cccc(CN2CC3(CCN(C(=O)c4ccc(OC)cc4OC)CC3)OC2=O)c1` [Example 112, 8-(2,4-dimethoxybenzoyl)-3-(3-methoxybenzyl)-1-oxa-3,8-diazaspiro[4.5]decan-2-one] it was 66%; in that of `COc1cccc(CC(=O)N2CCC3(CC2)CN(Cc2cc(C)cc(C)c2)C(=O)O3)c1` [Example 113, 3-(3,5-dimethylbenzyl)-8-[2-(3-methoxyphenyl)acetyl]-1-oxa-3,8-diazaspiro[4.5]decan-2-one], 68%. In turn, `COc1cc(C)c(CS(=O)(=O)N2CCC3(CC2)CN(Cc2cc(C)cc(C)c2)C(=O)O3)c(C)c1C` [Example 114, 3-(3,5-dimethylbenzyl)-8-(4-methoxy-2,3,6-trimethylbenzylsulfonyl)-1-oxa-3,8-diazaspiro[4.5]decan-2-one] showed an inhibition at 10 µM of 73%.

On to `N#Cc1ccc(CN2CC3(CCN(C(=O)c4ccc(-c5ccccc5)cc4)CC3)OC2=O)cc1` [Example 115, 4-[8-(biphenyl-4-carbonyl)-2-oxo-1-oxa-3,8-diazaspiro[4.5]dec-3-ylmethyl]benzonitrile], for which the inhibition at 10 µM is 84%. As to `Cc1cc(C)cc(CN2CC3(CCN(S(=O)(=O)Cc4ccccc4Cl)CC3)OC2=O)c1` [Example 116, 8-(2-chlorobenzylsulfonyl)-3-(3,5-dimethylbenzyl)-1-oxa-3,8-diazaspiro[4.5]decan-2-one], the inhibition at 10 µM came to 76%. In the case of `Cc1cc(C)cc(CN2CC3(CCN(C(=O)c4ccc5nonc5c4)CC3)OC2=O)c1` [Example 117, 8-(benzo[1,2,5]oxadiazole-5-carbonyl)-3-(3,5-dimethylbenzyl)-1-oxa-3,8-diazaspiro[4.5]decan-2-one], testing at 10 µM gave an inhibition of 73%.

Source of the values: US8153795B2, “Substituted 1-oxa-3,8-diazaspiro[4.5]-decan-2-one-compounds and the use thereof for producing drugs” (Gruenenthal GmbH, priority 2005, dated 2012).
